Values joined by “and” are separate entries in the source; they are usually repeats but may differ in a detail not shown here. Equal entries are not always repeated.
Key:
[1] = system: dimethylnitrosamine (DMN)-induced liver injury male SD rats; assay: Liver function-improving activities by oral administration in the liver injury model (2), 4 weeks, serum ALT/AST and liver histology; type: in vivo, rat; conditions: for ALT values (average value) / AST values (average value): serum
Text: The compounds according to the present invention were orally administered to dimethylnitrosamine (DMN)-induced liver injury male SD rats for 4 weeks, so as to evaluate liver function-improving activities. Specifically, 7-week-old male SD rats (Orient Bio, Korea) were accommodated to the laboratory environment at room temperature for 7 days. General symptoms were observed and then only healthy animals were used for the experiment. The rats were divided into 3 groups (n=10 for each group), the normal control group, the group to which only DMN is administered, and the group to which both the compound of the present invention (the compound of Example 21) and DMN are administered. DMN was dissolved in purified water and then administered intraperitoneally at the dose of 10 mg/kg for 3 consecutive weeks (3 times per week, for 4 weeks). Blood samples were collected after the completion of the fourth-week liver injury inducement and then the ALT (Alanine Transaminase) values and the AST (Aspartate Transaminase) values were measured so as to confirm the liver injury thereof. The compound of the present invention was administered for 4 weeks, from Day 1 after the completion of the fourth-week liver injury inducement. The compound of the present invention (the compound of Example 21) was dissolved in purified water and then orally administered, using an oral sonde, at the dose of 25 mg/kg once a day for 4 weeks. Blood samples were collected on Day 0 (1 day after the completion of the fourth-week liver injury inducement) and Day 7, 14, 21 and 28 after the administration of the test compound. The collected blood was injected into a vacutainer tube containing a clot activator and then allowed to stand at room temperature for about 20 minutes so as to coagulate each blood sample. After centrifugation for 10 minutes, the resulting serums were subjected to blood-biochemical tests. In addition, at 24 hours after the last administration, an autopsy for hepatectomy and fixation was performed to prepare the tissue specimens thereof. After preparing the slides with the tissue specimens, hematoxylin and eosin (H&E) staining was performed thereon for microscopic observation of damages to liver tissue and inflammatory cell infiltrations in liver tissues. In addition, Masson's trichrome staining was also performed thereon for microscopic observation of collagen fiber depositions in liver tissues.
In addition, the results obtained by performing hematoxylin and eosin (H&E) staining and Masson's trichrome staining as described above are shown in FIGS. 3 and 4, respectively. From the results of FIG. 3, the degrees of damages to liver tissue and the degrees of inflammatory cell infiltrations in liver tissues were measured. And also, from the results of FIG. 4, the degrees of collagen fiber depositions in liver tissues were measured.

[2] = system: dimethylnitrosamine (DMN)-induced liver injury male SD rats; assay: Liver function-improving activities by oral administration in the liver injury model (1), 3 weeks; type: in vivo, rat; conditions: serum, 25 mg/kg oral once a day
Text: The compounds according to the present invention were orally administered to dimethylnitrosamine (DMN)-induced liver injury male SD rats for 3 weeks, so as to evaluate liver function-improving activities. Specifically, 7-week-old male SD rats (Orient Bio, Korea) were accommodated to the laboratory environment at room temperature for 7 days. General symptoms were observed and then only healthy animals were used for the experiment. The rats were divided into 9 groups (n=5 for each group), the normal control group, the group to which only DMN is administered, and the groups to which both the compound of the present invention (the compounds of Example 2, 5, 6, 9, 10, 20 or 21) and DMN are administered. DMN was dissolved in purified water and then administered intraperitoneally at the dose of 10 mg/kg for 3 consecutive weeks (3 times per week, for 4 weeks). Blood samples were collected on Day 3 after the completion of the first-week liver injury inducement and then the ALT (Alanine Transaminase) values and the AST (Aspartate Transaminase) values were measured so as to confirm the liver injury thereof. The compounds of the present invention were administered for 3 weeks, i.e., from Day 4 after the completion of the first-week liver injury inducement to the DMN-administering period. The seven compounds of the present invention were dissolved in purified water or corn oil and then orally administered, using an oral sonde, at the dose of 25 mg/kg once a day for 3 weeks. Blood samples were collected on Day 0 (3 days after the completion of the first-week liver injury inducement) and Day 7, 14 and 21 after the administration of the test compounds. The collected blood was injected into a vacutainer tube containing a clot activator and then allowed to stand at room temperature for about 20 minutes so as to coagulate each blood sample. After centrifugation for 10 minutes, the resulting serums were subjected to blood-biochemical tests.

[3] = 3 weeks after the administration
[4] = 4 weeks after the administration
[5] = liver tissue, H&E staining, after 4 weeks 25 mg/kg oral, hydrochloride
[6] = 0 week (Day 0, after 4 weeks DMN), 25 mg/kg oral once a day
[7] = 1 week, 25 mg/kg oral once a day after 4 weeks DMN
[8] = 2 weeks, 25 mg/kg oral once a day after 4 weeks DMN
[9] = 3 weeks, 25 mg/kg oral once a day after 4 weeks DMN
[10] = 4 weeks, 25 mg/kg oral once a day after 4 weeks DMN
[11] = 0 week (Day 0, before administration of test compound)

CCN(CC)CCOc1ccc(-c2ccc(C(=O)NCC3(N(C)C)CCOCC3)s2)cc1OC.Cl.Cl [Example 21, N-((4-(dimethylamino)tetrahydro-2H-pyran-4-yl)methyl)-5-(4-(2-diethylamino)ethoxy-3-methoxyphenyl)thiophene-2-carboxamide hydrochloride]
ALT decrease in comparison with the DMN-administered group [1, 3]: 30% | AST decrease in comparison with the DMN-administered group [1, 3]: 22% | ALT decrease in comparison with the DMN-administered group [1, 4]: 26% | AST decrease in comparison with the DMN-administered group [1, 4]: 30% | collagen fiber depositions in liver tissues reduced in comparison with the DMN-administered group ([1]; after 4 weeks): about 62% | damages to liver tissue ameliorated in comparison with the DMN-administered group ([1]; after 4 weeks): about 50% | inflammatory cell infiltrations in liver tissues ameliorated in comparison with the DMN-administered group ([1]; after 4 weeks): ~55% | Degenerative hepatocyte numbers [1, 5]: 276.0 cells/1000 cells and 276.00 ± 16.64 cells/1000 cells | Inflammatory cell numbers [1, 5]: 85.33 cells/mm^2 and 85.33 ± 8.41 cells/mm^2 | Collagen fiber occupied regions ([1]; liver tissue, Masson's trichrome staining, after 4 weeks 25 mg/kg oral, hydrochloride): 10.98 %/mm^2 and 10.98 ± 1.33 %/mm^2 | ALT values (average value) [1, 6]: 198.02 U/L | AST values (average value) [1, 6]: 329.92 U/L | ALT values (average value) [1, 7]: 92.71 U/L | AST values (average value) [1, 7]: 158.91 U/L | ALT values (average value) [1, 8]: 57.61 U/L | AST values (average value) [1, 8]: 107.61 U/L | ALT values (average value) [1, 9]: 44.48 U/L | AST values (average value) [1, 9]: 112.06 U/L | ALT values (average value) [1, 10]: 48.33 U/L | AST values (average value) [1, 10]: 110.45 U/L | ALT values (average value) [2, 11]: 70.98 U/L | AST values (average value) [2, 11]: 142.10 U/L | ALT values (average value) ([2]; 1 week): 98.84 U/L | AST values (average value) ([2]; 1 week): 201.30 U/L | ALT values (average value) ([2]; 2 weeks): 104.54 U/L | AST values (average value) ([2]; 2 weeks): 208.26 U/L | ALT values (average value) ([2]; 3 weeks): 101.18 U/L | AST values (average value) ([2]; 3 weeks): 195.10 U/L

Source: US12110281B2, “Catechol derivatives or salt thereof, processes for preparing the same, and pharmaceutical compositions comprising the same” (HEXAPHARMATEC CO., LTD., priority 2018, dated 2024)
